In PubChem BioAssay AID493130 (Broad Institute, 2011):
Inconclusive results are not listed. Active and inactive are the calls of the source.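 Rule for the calls: active = signal-lowering compounds whose fitted half-maximal concentration is at most ten times their highest tested dose; inconclusive = flat fit between -30 and -70%, or poor fit; inactive = flat within 30%, signal rising, or potency beyond limit.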

Each molecule was assayed against POS-1 (Caenorhabditis elegans) binding to mex-3 RNA (assay: C. elegans POS-1 RNA interaction disruptors – biochemical, fluorescence polarization, cherry-picked samples, set 2, counter-screen for MEX-5 RNA-binding inhibitor project, dose response (AID 493130;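 note: POS-1 as maltose binding protein fusion made in E. coli with FITC RNA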;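 for activity change, negative = inhibition: 0% = DMSO neutral wells and -100% = excess unlabeled mex3 competitor RNA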)). Conditions: POS-1/mex-3 RNA fluorescence polarization, 1 h.

SMILES	AC50 [µM]
Nc1ccc2nc3c(=O)n(CCc4ccccc4)c(=O)[nH]c3nc2c1	1.22
Cc1ccc(C(=O)NNC(=O)c2ccc3ccccc3c2O)cc1	7.78
O=C1c2ccccc2C(=O)N1/N=C/c1ccc(O)c(O)c1O	2.31
COc1ccc(Cn2c(O)c(/C=N/NC(=O)c3ccccc3O)c(=O)[nH]c2=O)cc1	6.22

Same assay, conditions: POS-1/mex-3 RNA fluorescence polarization, 1 h; at 10 µM (top of the series)

SMILES	activity change, negative = inhibition
CCOC(=O)[C@]1(C#N)[C@@H]2C=CC(C(N)=O)=CN2[C@@H](C(N)=O)[C@@H]1c1ccc(F)cc1	inactive
O=C1SC(SCc2ccccc2)=N/C1=C\c1ccc(C(=O)O)cc1	inactive
Cn1c(CNC(=O)c2ccc(F)cc2)cc2ccccc21	inactive
Cc1ccc(-c2nc(C=Nc3cccc(C)c3)c(O)o2)cc1	inactive
CN1CCc2nc3sc(C(=O)NC(C)(C)C)c(N)c3cc2C1	inactive
Nc1ccc(Cc2ccc(N)c(C(=O)O)c2)cc1C(=O)O	inactive
CC1CN(Cc2c(O)ccc3c2oc(=O)c2ccccc23)CC(C)O1 (stereo not given)	inactive
Cn1c(O)c(N=Nc2ccc(F)cc2)c2ccccc21	inactive
S=c1[nH]cnc2sc(Nc3ccccc3)nc12	inactive
NC(=S)N=Nc1c(O)[nH]c2ccccc12	inactive
COC(=O)c1ccc(CC(=O)c2ccc(O)cc2O)o1	inactive
N#C/C(=N\Nc1cccc(C(F)(F)F)c1)C(=O)c1ccsc1	inactive
CCCCn1c(O)c(N=Nc2ccccn2)c2ccccc21	inactive
CCOC(=O)CC1=C(C(=O)OCC)C(c2ccc(OC)cc2OC)C(C#N)=C(N)O1 (stereo not given)	inactive
Oc1cc2c(c(Cl)c1O)CCNCC2c1ccccc1 (stereo not given)	inactive
CC(=Nc1ccc(C)cc1C)c1sc2ccccc2c1O	inactive

SMILES	activity change, negative = inhibition
COc1cc(/C=C2\CCCc3c2nc2ccccc2c3C(=O)O)cc(OC)c1O	inactive
Cc1ccc([C@@H]2C3COCC=C3C(C#N)=C(N)C2(C#N)C#N)o1 (stereo not given in full)	inactive
Cc1nnc(N2C(=O)C(O)=C(C(=O)c3ccco3)C2c2ccc(C(C)C)cc2)s1 (stereo not given)	inactive
N=c1c(C(=O)NC2CCCC2)cc2c(=O)n3ccccc3nc2n1C1CCCC1	inactive
C[n+]1c2ccccc2nc2ccc(NCCO)cc21	inactive
Cc1cc(C)c2cc3c(N)c(C(=O)N4CCc5ccccc5C4)sc3nc2c1	inactive
COc1ccc(NC(=O)c2sc3nc(Cc4ccccc4)cc(C(F)(F)F)c3c2N)cc1OC	inactive
O=C1OC(C(=O)O)Cc2ccccc21 (stereo not given)	inactive
CC(=O)O[C@@H]1[C@@H](O)[C@@H](O)[C@H](Oc2c(-c3ccc(O)cc3)oc3c(CC=C(C)C)c(O)cc(O)c3c2=O)O[C@H]1C	inactive
Cc1cc(/C=C2\SC(=S)N(Cc3ccco3)C2=O)c(C)n1-c1ccccc1	inactive
Nc1c(C(=O)Nc2ccccc2)sc2nc3c(c(-c4ccco4)c12)CCC3	inactive
CCOc1cc(/C=N/n2c(C)nc3ccccc3c2=O)ccc1O	inactive
CN(C)c1ccc(N=Cc2nc(-c3ccccc3)oc2OC(=O)c2cccc(Br)c2)cc1	inactive
CCOC(=O)CC1=C(C(=O)OCC)C(c2ccc(OC)c(OC)c2)C(C#N)=C(N)O1 (stereo not given)	inactive
O=C(O)CCCCCN1C(=O)C(O)=C(C(=O)/C=C/c2ccccc2)C1c1ccccc1[N+](=O)[O-] (stereo not given)	inactive
